The values below come from ChEMBL document CHEMBL1131845, “Naphthazarin derivatives (II): formation of glutathione conjugate, inhibition of DNA topoisomerase-I and cytotoxicity” (Bioorg Med Chem Lett, 1999).

In brackets after ≈: the same amount, converted by molar mass.

Assay [1] has as its system L1210. Kind of assay: Cytotoxicity against L1210 cells. It is filed as functional. As to conditions: Mus musculus, read-out: ED50 (the source's name).
Assay [2] is described as follows: Concentration formed during 5 min incubation of quinone (1 mM) with GSH (5 mM).

`CCCCCC(O)c1cc(OC)c2c(c1OC)C(=O)C=CC2=O` (stereo not given): the EC50 in assay [1] amounted to 0.066 mg/L (≈ 0.207 µM). Besides, the Concentration in assay [2] is 0.28 mM.
Consider `COc1cc(C(C)O)c(OC)c2c1C(=O)C=CC2=O` (stereo not given), for which the EC50 in assay [1] worked out at 0.132 mg/L (≈ 0.503 µM). This compound also came in with a Concentration in assay [2] of 0.304 mM.
The matching figures for `CCCCCCC(O)c1cc(OC)c2c(c1OC)C(=O)C=CC2=O` (stereo not given): 0.22 mg/L (≈ 0.662 µM) and 0.182 mM.
The matching figures for `COc1ccc(OC)c2c1C(=O)C=C(C(C)O)C2=O` (stereo not given): 0.487 mg/L (≈ 1.86 µM) and 0.125 mM.
The matching figures for `CCCCCCCC(O)C1=CC(=O)c2c(OC)ccc(OC)c2C1=O` (stereo not given): 1.04 mg/L (≈ 3.01 µM) and 0.06 mM.
In the case of `COc1cc(CO)c(OC)c2c1C(=O)C=CC2=O`, in assay [1], the EC50 is 0.062 mg/L (≈ 0.25 µM). The Concentration in assay [2] was 0.314 mM.
As for `CCCCC(O)C1=CC(=O)c2c(OC)ccc(OC)c2C1=O` (stereo not given), the EC50 in assay [1] was 0.412 mg/L (≈ 1.35 µM). In assay [2], this compound had a Concentration of 0.131 mM.
On the same counts, the results for `CCCCCCCC(O)c1cc(OC)c2c(c1OC)C(=O)C=CC2=O` (stereo not given) are 0.274 mg/L (≈ 0.791 µM) and 0.137 mM.
The matching figures for `CCCCCC(O)C1=CC(=O)c2c(OC)ccc(OC)c2C1=O` (stereo not given): 0.378 mg/L (≈ 1.19 µM) and 0.124 mM.
The matching figures for `CCC(O)C1=CC(=O)c2c(OC)ccc(OC)c2C1=O` (stereo not given): 0.516 mg/L (≈ 1.87 µM) and 0.084 mM.
With `CCC(O)c1cc(OC)c2c(c1OC)C(=O)C=CC2=O` (stereo not given), the EC50 in assay [1] amounted to 0.085 mg/L (≈ 0.308 µM). The Concentration in assay [2] was 0.295 mM.
`CCCC(O)c1cc(OC)c2c(c1OC)C(=O)C=CC2=O` (stereo not given): the EC50 in assay [1] stood at 0.043 mg/L (≈ 0.148 µM).
As for `CCCCCCC(O)C1=CC(=O)c2c(OC)ccc(OC)c2C1=O` (stereo not given), the EC50 in assay [1] turned out to be 0.732 mg/L (≈ 2.2 µM). Besides, the Concentration in assay [2] came out at 0.072 mM.
On to `CCCCC(O)c1cc(OC)c2c(c1OC)C(=O)C=CC2=O` (stereo not given), for which, in assay [1], the EC50 was 0.057 mg/L (≈ 0.187 µM).
`COc1ccc(OC)c2c1C(=O)C=C(CO)C2=O`: the EC50 in assay [1] was 0.524 mg/L (≈ 2.11 µM). This compound also had a Concentration in assay [2] of 0.13 mM.
On the same counts, the results for `CCCC(O)C1=CC(=O)c2c(OC)ccc(OC)c2C1=O` (stereo not given) are 0.409 mg/L (≈ 1.41 µM) and 0.116 mM.
